Measurements published in patent US5585381A, “Pyrimidine derivatives and pharmaceutical composition” (Kureha Chemical Industry Co., Ltd., priority 1994, dated 1996).
Like-named read-outs stand apart in the source and are kept apart here.

Columns and labels:
[1] = system: kidney disease model rats; experiment: Action to depress blood pressure in kidney disease model rats (tail cuff); type: in vivo, Sprague-Dawley female rats; conditions: 20 mg/kg per os; for Blood pressure (average systolic): after two days, control 210 mmHg
Method: (§1) The compounds of the present invention and the reference substance were forcedly administered per os to kidney disease model rats, and the action to depress blood pressure was observed. The kidney disease model rats were prepared by ligature of branches of renal artery in accordance with the conventional method, that is, the left hilum renalis of Sprague-Dawley female rats was exposed under anesthesia, and one of four secondary branches of renal artery was left unligated, while the remaining three branches were ligated, respectively. After a week, the hilum renalis (artery, vein, and ureter) of the right kidney were further ligated to thereby prepare the rats whose renal function was lowered to approximately 1/8 of the normal function. Each group consisted of eight rats. The drugs to be tested (20 mg/kg) were administered to each administering group, and only water was administered to control group. After two days from the administration, the systolic blood pressure was measured by the tail cuff method using a blood pressure measuring apparatus (UR5000; Ueda).

[2] = system: renal dysfunction model rats; conditions: cited from earlier work
hyperlipemia model rats = conditions: cited from earlier work
[3] = system: kidney disease model rats; conditions: cited from earlier work
[4] = ACE inhibitor; cited from earlier work
[5] = biological target: T1, angiotensin II receptor subtype 2 (AT2) (Bos taurus, UniProt G5E6F7); experiment: Binding to angiotensin II receptor subtype 2 (AT2); set-up: species or system bovine (cerebellar cortex); conditions: 125I-Tyr4-angiotensin II tracer, 37° C., 1 hour
T1 construct: from cerebellar cortex in bovine; from tissue; host or cells: bovine cerebellar cortex
T1 sequence (G5E6F7 1-362): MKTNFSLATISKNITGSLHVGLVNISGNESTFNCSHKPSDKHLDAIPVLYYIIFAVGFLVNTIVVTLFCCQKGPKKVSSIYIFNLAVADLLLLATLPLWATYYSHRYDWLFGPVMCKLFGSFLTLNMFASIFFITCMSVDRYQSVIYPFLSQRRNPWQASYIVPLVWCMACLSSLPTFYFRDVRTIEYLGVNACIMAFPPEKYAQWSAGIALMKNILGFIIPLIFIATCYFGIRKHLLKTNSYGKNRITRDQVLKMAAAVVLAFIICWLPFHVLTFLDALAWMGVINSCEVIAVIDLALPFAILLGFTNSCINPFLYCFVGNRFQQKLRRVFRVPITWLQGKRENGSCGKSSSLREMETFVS
Method: (§2) In this Example, the affinity to the angiotensin II receptor subtype 1 or subtype 2 was evaluated by a binding assay in accordance with the method described in Biochem. Pharmacol., 33, 4057-4062 (1984).
(§3) Specifically, the measurement of the total binding in the presence of each drug was performed as follows:
(§4) A mixture (final volume=0.25 ml) of a drug in a given concentration (the drug was dissolved in DMSO, and diluted to a double volume with a buffer attached to a drug discovery system to prepare sample for the assay; 0,025 ml), a tracer (0.025 ml), and receptors (0.2 ml) was incubated [in the case of the angiotensin II receptor subtype 1 (AT1), at room temperature for 3 hours, and in the case of the subtype 2 (AT2), at 37° C. for 1 hour]. Then, the reaction mixture was filtered with suction (GF/C filter was used in AT1, and GF/B filter was used in AT2). The filter papers after filtration with suction (the tracer bound to the receptors) were counted by a γ-well counter (ARC-500, Aloka). The non-specific bindings were measured by repeating the above method, except that a large excess amount of a displacer was added. The specific binding of the drug in the given concentration was calculated by subtracting the non-specific binding from the total binding, respectively.
(§5) In AT1 and AT2, the percentages to inhibit the bindings of radioactive ligands (tracer) to receptors by the drugs to be tested (IC50 value of concentration to show 50% inhibition, or binding inhibition % in 100 μM) were measured, using the drugs to be tested and control drugs in the given concentration.
from cerebellar cortex in bovine
tracer: ^125 I-Tyr^4 -angiotensin II

[6] = system: kidney disease model rats; experiment: Renal function indicatory value (action to kidney diseases); type: in vivo, Sprague-Dawley female rats; conditions: 20 mg/kg/day per os, two weeks; for Creatinine clearance (CCr): control 0.20; for Creatinine (serum, Scr): control 2.0; for Urea nitrogen (BUN): control 100
Method: The kidney disease model rats were prepared by ligature of branches of renal artery in accordance with the conventional method, that is, the left hilum renalis of Sprague-Dawley female rats was exposed under anesthesia, and one of four secondary branches of renal artery was left unligated, while the remaining three branches were ligated, respectively. […] Each group consisted of eight rats. The drugs to be tested (20 mg/kg) were administered to each administering group, and only water was administered to control group. After two days from the administration, the systolic blood pressure was measured by the tail cuff method using a blood pressure measuring apparatus (UR5000; Ueda).
The kidney disease model rats were prepared as in Example 21. Fifteen groups (8 rats per group) were sleeked in a manner so that there were no major differences between each group in the serum creatinine value and the urea nitrogen value indicating renal function. The rats in each group were allowed to freely take up feed and water. […] To the rats in the control group, only water was forcedly administered per os every day. After two weeks, 0.2 ml of blood was collected from the carotid artery of the rat under anesthesia, and centrifuged to obtain serum. Using 25 μl of the serum, serum creatinine (Scr) was measured by a creatinine analytical instrument (Beckman). Using 10 μl of the serum, urea nitrogen (BUN) was measured by a BUN analytical instrument (Beckman). Creatinine clearance was evaluated as follows:
After serum creatinine measurement, rats were placed in urinary metabolic cages for 24 hours to collect urine. Urinary creatine concentration (Ucr) was measured by a creatinine analytical instrument, and total volume of urination (Uvol) was also measured. Creatinine clearance (CCr) was calculated by the following formula: [formula]

[7] = biological target: T2, angiotensin II receptor subtype 1 (AT1) (Oryctolagus cuniculus, UniProt P34976); experiment: Binding to angiotensin II receptor subtype 1 (AT1); set-up: species or system rabbits (adrenal glands); conditions: 100 μM; 3H-angiotensin II tracer
T2 construct: from adrenal glands in rabbits; from tissue; host or cells: rabbit adrenal glands
T2 sequence (P34976 1-359): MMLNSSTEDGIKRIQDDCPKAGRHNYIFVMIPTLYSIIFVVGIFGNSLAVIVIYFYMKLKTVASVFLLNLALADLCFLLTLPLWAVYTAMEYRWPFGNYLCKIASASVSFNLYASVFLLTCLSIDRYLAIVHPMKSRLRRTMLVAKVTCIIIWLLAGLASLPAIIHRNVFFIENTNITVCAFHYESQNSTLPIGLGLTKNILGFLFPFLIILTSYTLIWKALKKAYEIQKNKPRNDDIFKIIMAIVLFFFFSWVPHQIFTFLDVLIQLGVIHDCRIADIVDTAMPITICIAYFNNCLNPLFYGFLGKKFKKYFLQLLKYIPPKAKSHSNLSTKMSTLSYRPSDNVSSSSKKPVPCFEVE
Method: as §2, §3, §4, §5

[8] = system: kidney disease model rats; experiment: Action to survival time of kidney diseased animals; type: in vivo, Sprague-Dawley female rats; conditions: 20 mg/kg/day per os; observation eight weeks (upper limit); control 5.0
Method: as §1
The kidney disease model rats were prepared as in Example 21. Fifteen groups (8 rats per group) were prepared in a manner so that there was no major difference between the groups in the serum creatinine value and the urea nitrogen value indicating renal function. The rats in each group were allowed to freely take up feed and water. […] To the rats in the control group, only water was forcedly administered per os every day. If kidney diseases are aggravated, the rat will die of uremia. Thus, the survival time was observed as comprehensive indication of the improvement effect on the kidney diseases. The observation period was eight weeks. Thus if all rats survived, the average survival time is eight weeks and it is an upper limit.

[9] = Acute toxicity, single oral dose in mice; type: in vivo, ICR female mice; conditions: 500 mg/kg single oral dose, 6 days, 5 per group
Method: Five-week-old ICR female mice (5 mice per group) were bred for acclimation for a week. Then, the compounds of the present invention were dissolved or dispersed in an aqueous solution of 0.5% methylcellulose, and orally administered to the mice in a single dosage (500 mg/kg).

## CCCCc1nc(Cl)c(CO)n1Cc1ccc(-c2ccccc2-c2nnn[nH]2)cc1 [DuP753, 2-butyl-4-chloro-5-(hydroxymethyl)-1-[[2'-(1H-tetrazol-5-yl)biphenyl-4-yl]methyl]imidazole]
[1]; comparison with control group
  action to depress blood pressure (in words): clearly showed the action to depress the blood pressure
[2]
  blood pressure: the reduction of blood pressure accompanied
  effect on proteinuria and glomerulosclerosis: effective against proteinuria and glomerulosclerosis
Hyperlipemia model rats; large dose more effective against the kidney disease
  blood pressure: an evident reduction of blood pressure was observed
Hyperlipemia model rats; lower dose
  blood pressure: without practical effect to blood pressure
  effect on kidney disease: the kidney disease was improved

## CCCN(Cc1ccc(-c2ccccc2-c2nnn[nH]2)cc1)c1ncccc1C(=O)O [A-81988, 2-[N-propyl-N-[[2'-(1H-tetrazol-5-yl)biphenyl-4-yl]methyl]amino]pyridine-3-carboxylic acid]
[3]
  blood pressure: the reduction of blood pressure was observed
  proteinuria: proteinuria was improved

## C[C@H](CS)C(=O)N1CCC[C@H]1C(=O)O [captoril]
[4]
  blood pressure: blood pressure is lowered
  progress of renal dysfunction: the progress of renal dysfunction is improved

## CCOC(=O)[C@H](CCc1ccccc1)N[C@@H](C)C(=O)N1CCC[C@H]1C(=O)O [enalapril]
[4]
  blood pressure: blood pressure is lowered
  progress of renal dysfunction: the progress of renal dysfunction is improved

## CCCCC(=O)Nc1c(NCCc2ccccc2)ncnc1NCc1ccc(OC)cc1 [compound 90, 4-[[(6-phenethylamino-5-valeramido)pyrimidin-4-yl]aminomethyl]anisole]
[1]
  Blood pressure (average systolic): 208 mmHg
[5]
  inhibition at 100 µM: 0%
[6]
  Creatinine clearance (CCr): 0.29 mL/min
  Creatinine (serum, Scr): 1.7 mg/dL
  Urea nitrogen (BUN): 82 mg/dL
[7]
  inhibition at 100 µM: 20%
[8]
  Average survival time: 6.9 weeks

## CCCCC(=O)Nc1c(Cl)ncnc1NCc1ccc(C(=O)OC)cc1 [Compound No. 1, methyl 4-[[(6-chloro-5-valeramido)pyrimidin-4-yl]aminomethyl]benzoate]
[1]
  Blood pressure (average systolic): 210 mmHg
[5]
  inhibition at 100 µM: 0%
[6]
  Creatinine clearance (CCr): 0.29 mL/min
  Creatinine (serum, Scr): 1.7 mg/dL
  Urea nitrogen (BUN): 84 mg/dL
[9]
  Number of deaths/number of survivals: 0/5
[7]
  inhibition at 100 µM: 11%
[8]
  Average survival time: 6.9 weeks
